The text below walks through data of ChEMBL document CHEMBL1201862, “PubChem BioAssay data set” (2004).

Some test systems named below: A498; ACHN; COLO 205; HCC 2998; HCT-116; HCT-15; HL-60; HOP-62; HT-29; IGROV-1; Malme-3M; NCI-H23; NCI-H522; OVCAR-4; OVCAR-8; SK-MEL-28; SK-OV-3; UACC-257; UO-31.
Common to all, as to assay: NCI tumour cell line growth inhibition, 48 h

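Step 1: Grow cells in 96-well plates. Step 2: Expose to compound for 48 hours at 5 concentrations. Step 3: Interpolate endpoints linearly; if unreached, use highest concentration. Abbreviation: GI50, concentration required for 50% inhibition of growth.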 The source made the active and inactive calls. Cut-off read from the data, not from the text of the source: active = GI50 up to about 1.1 µM and inactive = higher.

Consider `COc1ccc(C2=C(Cl)c3cc(OC)c(OC)cc3C2)cc1OC`, for which the GI50 is 34.9 µM (inactive) in the experiment with A498; > 100 µM (inactive) with ACHN; > 100 µM (inactive) with COLO 205; > 100 µM (inactive) in the experiment with HCC 2998; > 100 µM (inactive) in the experiment with HCT-116; greater than 100 µM in the experiment with HCT-15. Besides, the GI50 in the experiment with HL-60, with HOP-62, in the experiment on HT-29, in the experiment on IGROV-1, in the experiment with Malme-3M and with NCI-H23 was > 100 µM (inactive) in each case. The GI50 in the experiment with NCI-H522, in the experiment on OVCAR-4, with OVCAR-8, in the experiment on SK-MEL-28, in the experiment on SK-OV-3 and in the experiment on UACC-257 was > 100 µM (inactive) throughout. For the same compound, the GI50 in the experiment on UO-31 was > 100 µM (inactive).
For `CCOC(=O)C1S/C(=N\c2ccc(C)c(C)c2)N=C1C` (centres undefined), the GI50 in the experiment on A498 is > 100 µM (inactive); in the experiment on ACHN it was > 100 µM (inactive); in the experiment on COLO 205, > 100 µM (inactive); with HCC 2998, > 100 µM (inactive); in the experiment with HCT-15 it was greater than 100 µM; with HL-60, 61 µM (inactive). Moreover, the GI50 in the experiment with HOP-62, in the experiment with HT-29, in the experiment with IGROV-1, with Malme-3M, with NCI-H23 and in the experiment with NCI-H522 was > 100 µM (inactive) in each case. For the same compound, the GI50 in the experiment on OVCAR-4, in the experiment with OVCAR-8, in the experiment on SK-MEL-28, with SK-OV-3, in the experiment with UACC-257 and with UO-31 was > 100 µM (inactive) in each case.
`C=C1C[C@H]2C=Nc3cc(OCCCOc4cc5c(cc4OC)C(=O)N4CC(=C)C[C@H]4C=N5)c(OC)cc3C(=O)N2C1` [SJG-136]: the GI50 in the experiment with A498 was 0.0146 µM (active); with ACHN, < 0.01 µM (active); in the experiment on COLO 205, < 0.01 µM (active); with HCC 2998, 0.0126 µM (active); in the experiment on HCT-116 it was 0.0103 µM (active); in the experiment on HCT-15, 0.124 µM. Moreover, the GI50 in the experiment on HL-60 was < 0.01 µM (active); in the experiment with HOP-62 it was 0.0106 µM (active); in the experiment on HT-29 it was 0.0147 µM (active); in the experiment with IGROV-1 it was < 0.01 µM (active); in the experiment with Malme-3M, 0.0109 µM (active); in the experiment on NCI-H23 it was 0.00166 µM (active). Further, the GI50 is 0.0014 µM (active) with NCI-H522; 0.0306 µM (active) with OVCAR-4; 0.0119 µM (active) in the experiment on OVCAR-8; 0.0141 µM (active) in the experiment on SK-MEL-28; 0.0216 µM (active) in the experiment on SK-OV-3; 0.0146 µM (active) in the experiment with UACC-257. Further, the GI50 with UO-31 is 0.0208 µM (active).
For the compound `COC(=O)CCCC(=O)NC1=C(NCc2ccccc2)C(=O)c2ccccc2C1=O`, the GI50 was > 100 µM (inactive) in the experiment on A498; 73.8 µM (inactive) in the experiment with ACHN; 23.8 µM (inactive) in the experiment on COLO 205; > 100 µM (inactive) in the experiment with HCC 2998; 32.1 µM (inactive) with HCT-116; 52.4 µM in the experiment with HCT-15. In addition, the GI50 was 29 µM (inactive) in the experiment on HL-60; 44.2 µM (inactive) in the experiment with IGROV-1; 15.5 µM (inactive) in the experiment with Malme-3M; 53.2 µM (inactive) with NCI-H23; 70.5 µM (inactive) in the experiment on NCI-H522; 47.9 µM (inactive) in the experiment on OVCAR-4. Further, the GI50 is 68.4 µM (inactive) in the experiment with OVCAR-8; > 100 µM (inactive) in the experiment with SK-MEL-28; 45.5 µM (inactive) in the experiment on SK-OV-3; 29.7 µM (inactive) in the experiment on UACC-257; > 100 µM (inactive) in the experiment with UO-31.
With `Cc1cc(Cl)ccc1NC(=O)CCCC(=O)C(C(=O)c1ccccc1)c1ccccc1` (centres undefined), the GI50 in the experiment with A498 was > 100 µM (inactive); in the experiment on ACHN, > 100 µM (inactive); with COLO 205, > 100 µM (inactive); in the experiment on HCC 2998 it was > 100 µM (inactive); in the experiment with HCT-15, greater than 100 µM; in the experiment on HL-60, > 100 µM (inactive). Besides, the GI50 in the experiment with HOP-62 is 93.5 µM (inactive); in the experiment on HT-29, > 100 µM (inactive); with IGROV-1 it was > 100 µM (inactive); with Malme-3M, > 100 µM (inactive); in the experiment on NCI-H23, > 100 µM (inactive); in the experiment on NCI-H522, > 100 µM (inactive). Besides, the GI50 with OVCAR-4, with SK-OV-3 and in the experiment with UACC-257 was > 100 µM (inactive) in each case.
`C[C@]12CC[C@H](O)CC1=CC[C@@H]1C2CC[C@]2(C)C(=O)NC(=O)CC12` (some centres undefined): the GI50 is > 100 µM (inactive) in the experiment with A498; > 100 µM (inactive) with ACHN; 36.8 µM (inactive) in the experiment on COLO 205; > 100 µM (inactive) in the experiment on HCC 2998; 53.7 µM (inactive) with HCT-116; greater than 100 µM in the experiment with HCT-15. The GI50 in the experiment on HL-60 was > 100 µM (inactive); in the experiment with HOP-62, > 100 µM (inactive); in the experiment on HT-29 it was 82.2 µM (inactive); in the experiment on IGROV-1, 96.8 µM (inactive); with Malme-3M it was 92.5 µM (inactive); in the experiment on NCI-H23, > 100 µM (inactive). Further, the GI50 in the experiment with NCI-H522 was 63 µM (inactive); with OVCAR-4, > 100 µM (inactive); with OVCAR-8, 45.6 µM (inactive); with SK-MEL-28, > 100 µM (inactive); in the experiment on SK-OV-3 it was > 100 µM (inactive); in the experiment on UACC-257, > 100 µM (inactive). In the experiment with UO-31, the GI50 was > 100 µM (inactive).
Regarding `CC1COC(C)(C)P(=O)(c2ccccc2)C1` (centres undefined), the GI50 in the experiment with A498 is > 100 µM (inactive); with ACHN, > 100 µM (inactive); in the experiment with COLO 205, > 100 µM (inactive); in the experiment with HCC 2998 it was > 100 µM (inactive); in the experiment with HCT-116 it was > 100 µM (inactive); with HCT-15, greater than 100 µM. The GI50 in the experiment on HL-60, in the experiment with HOP-62, in the experiment on HT-29, in the experiment on IGROV-1, in the experiment on Malme-3M and in the experiment with NCI-H23 was > 100 µM (inactive) each time. Also, the GI50 in the experiment on NCI-H522, with OVCAR-8, with SK-MEL-28, in the experiment with SK-OV-3, with UACC-257 and in the experiment with UO-31 was > 100 µM (inactive) throughout.
Consider `Cc1ccc(S(=O)OC23CC4CC(CC(C4)C2)C3)cc1` (centres undefined), for which the GI50 in the experiment on A498 is > 100 µM (inactive); in the experiment on ACHN it was > 100 µM (inactive); in the experiment on COLO 205, > 100 µM (inactive); in the experiment with HCC 2998, > 100 µM (inactive); with HCT-116, > 100 µM (inactive); in the experiment with HCT-15, greater than 100 µM. Moreover, the GI50 in the experiment with HL-60 is 19.4 µM (inactive); in the experiment on HOP-62, > 100 µM (inactive); in the experiment with HT-29 it was > 100 µM (inactive); in the experiment on IGROV-1, 29.4 µM (inactive); with Malme-3M, > 100 µM (inactive); with NCI-H23, > 100 µM (inactive). In addition, the GI50 was 30.5 µM (inactive) with NCI-H522; > 100 µM (inactive) with OVCAR-4; > 100 µM (inactive) in the experiment with OVCAR-8; > 100 µM (inactive) in the experiment on SK-MEL-28; > 100 µM (inactive) with SK-OV-3; > 100 µM (inactive) in the experiment on UACC-257. For the same compound, the GI50 in the experiment with UO-31 was 41.2 µM (inactive).
Turning to `Cc1cccc2c1c1ccc3c(c1n2C)C(=O)C=CC3=O`, the GI50 is 27.4 µM (inactive) in the experiment on A498; 7.73 µM (inactive) with ACHN; 2.39 µM (inactive) in the experiment with COLO 205; 18.2 µM (inactive) in the experiment with HCC 2998; 5.86 µM (inactive) in the experiment with HCT-116; 5.18 µM in the experiment with HCT-15. For the same compound, the GI50 in the experiment on HL-60 was 0.521 µM (active); with HOP-62 it was 19 µM (inactive); in the experiment on HT-29 it was 3.47 µM (inactive); with IGROV-1, 18.3 µM (inactive); in the experiment with Malme-3M it was 4.33 µM (inactive); with NCI-H23, 13.5 µM (inactive). Further, the GI50 in the experiment on NCI-H522 is 1.51 µM (inactive); with OVCAR-4 it was 11.8 µM (inactive); in the experiment on OVCAR-8, 5.37 µM (inactive); with SK-MEL-28 it was 9.71 µM (inactive); with SK-OV-3, 20.1 µM (inactive); with UACC-257 it was 11.4 µM (inactive). The GI50 in the experiment on UO-31 was 3.4 µM (inactive).
On to `CC(=O)OCc1c2ccccc2c(C)c2c1cc(F)c1ccccc12`, for which the GI50 in the experiment on A498 was 39 µM (inactive); in the experiment with ACHN, 17.5 µM (inactive); with COLO 205, 16.2 µM (inactive); with HCC 2998 it was 25.9 µM (inactive); in the experiment with HCT-116, 31.3 µM (inactive); with HL-60 it was 23 µM (inactive). In addition, the GI50 with HOP-62 is 45.6 µM (inactive); in the experiment on HT-29 it was 17.7 µM (inactive); with IGROV-1, 22.5 µM (inactive); in the experiment with Malme-3M, 52.2 µM (inactive); in the experiment with NCI-H23 it was 23.1 µM (inactive); in the experiment with NCI-H522, 12.2 µM (inactive). Further, the GI50 in the experiment with OVCAR-4 is 24.2 µM (inactive); in the experiment with OVCAR-8, 18.9 µM (inactive); with SK-MEL-28 it was 97.5 µM (inactive); in the experiment on SK-OV-3, 52.5 µM (inactive); with UACC-257, > 100 µM (inactive); in the experiment with UO-31, 38 µM (inactive).
Consider `CC(=O)N1CCN(c2ccc(OCC3COC(Cn4ccnc4)(c4ccc(Cl)cc4Cl)O3)cc2)CC1` (centres undefined) [KETOCONAZOLE], for which the GI50 in the experiment with A498 was 37 µM (inactive); in the experiment on ACHN, 36.2 µM (inactive); in the experiment on COLO 205, 20.1 µM (inactive); in the experiment on HCC 2998 it was 28.4 µM (inactive); in the experiment on HCT-116 it was 22.3 µM (inactive); in the experiment on HCT-15 it was 25.8 µM. The GI50 was 20.1 µM (inactive) with HL-60; 39.4 µM (inactive) with HOP-62; 18.9 µM (inactive) in the experiment with HT-29; 38.7 µM (inactive) in the experiment on IGROV-1; 28.8 µM (inactive) in the experiment with Malme-3M; 25.6 µM (inactive) in the experiment on NCI-H522. For the same compound, the GI50 in the experiment on OVCAR-4 was 39.1 µM (inactive); in the experiment on OVCAR-8, 26.7 µM (inactive); in the experiment with SK-MEL-28, 34.6 µM (inactive); in the experiment on SK-OV-3, 55.8 µM (inactive); in the experiment on UACC-257, 20.7 µM (inactive); in the experiment with UO-31, 25.8 µM (inactive).
